Reference: US4840956A, “Novel disubstituted-7-pyrrolidinoquinoline antibacterial agents” (Warner-Lambert Company, priority 1988, dated 1989)
In brackets after ≈: the same amount, converted by molar mass.

Columns and labels:
Test in all cases: MIC by microtitration dilution method
Assay type in all cases: cell-based
[1] = tested on: Enterobacter cloacae MA 2646; conditions: MA2646, read-out: Minimal Inhibitory Concentration MIC
Description: (§1) Agents & Chemoth., 6, 124 (1974), which is incorporated herein by reference.

[2] = tested on: Escherichia coli Vogel; conditions: in vitro, read-out: Minimal Inhibitory Concentration MIC
Description: as §1

[3] = tested on: Klebsiella pneumoniae MGH-2; conditions: MGH2, read-out: Minimal Inhibitory Concentration MIC
Description: as §1

[4] = tested on: Proteus rettgeri M 1771; conditions: Providencia rettgeri, M1771; Proteus rettgeri M 1771, in vitro; read-out: Minimal Inhibitory Concentration MIC
Description: as §1

[5] = tested on: Pseudomonas aeruginosa UI-18; conditions: UI18, read-out: Minimal Inhibitory Concentration MIC
Description: as §1

[6] = tested on: Staphylococcus aureus H 228; conditions: H228; Staphylococcus aureus H 228, in vitro; read-out: Minimal Inhibitory Concentration MIC
Description: (§2) The compounds of the invention display antibacterial activity when tested by the microtitration dilution method as described in Heifetz, et al, Antimicr. Agents & Chemoth., 6, 124 (1974), which is incorporated herein by reference.
(§3) By use of the above referenced method, the following minimum inhibitory concentration values (MICs in μg/ml) were obtained for representative compounds of the invention.

[7] = tested on: Staphylococcus aureus UC-76; conditions: UC76; Staphylococcus aureus UC-76, in vitro; read-out: Minimal Inhibitory Concentration MIC
Description: as §2, §3

[8] = tested on: Streptococcus faecalis MGH-2; conditions: Enterococcus faecalis, MGH2; Streptococcus faecalis MGH-2, in vitro; read-out: Minimal Inhibitory Concentration MIC
Description: as §2, §3

[9] = tested on: Streptococcus pneumoniae SV-1; conditions: SV1; Streptococcus pneumoniae SV-1, in vitro; read-out: Minimal Inhibitory Concentration MIC
Description: as §2, §3

[10] = tested on: Streptococcus pyogenes C-203; conditions: C203; Streptococcus pyogenes C-203, in vitro; read-out: Minimal Inhibitory Concentration MIC
Description: as §2, §3

Compound `NCC1(c2ccccc2)CCN(c2c(F)cc3c(=O)c(C(=O)O)cn(C4CC4)c3c2F)C1` (stereo not shown) [Example 5, 7-[[3-(Aminomethyl)-3-phenyl]-1-pyrrolidinyl]-1-cyclopropyl-6,8-difluro-1,4-dihydro-4-oxo-3-quinolinecarboxylic acid] has an MIC [1] of 0.05 µg/mL (≈ 0.114 µM), an MIC [2] of 0.05 µg/mL (≈ 0.114 µM) and an MIC [3] of 0.1 µg/mL (≈ 0.228 µM). It also gave an MIC [4] of 0.2 µg/mL (≈ 0.455 µM), an MIC [5] of 0.4 µg/mL (≈ 0.91 µM) and an MIC [6] of 0.025 µg/mL (≈ 0.0569 µM). For the same compound, the MIC [7] was 0.013 µg/mL (≈ 0.0296 µM), the MIC [8] was 0.05 µg/mL (≈ 0.114 µM) and the MIC [9] was 0.013 µg/mL (≈ 0.0296 µM). It also gave an MIC [10] of 0.05 µg/mL (≈ 0.114 µM).
